A word on the EC50: it is the concentration needed to bring the measured effect to its halfway point. What is called AUC(0-t) is the area under the concentration-time curve up to a stated or last time point. The term Cmax denotes the maximum level reached in the sampled fluid or tissue. A word on the Tmax: it is the time from dosing to the highest level. Usually AUC(0-inf) stands for the area under the concentration-time curve extrapolated to infinity. As usually defined, the half-life is the time needed for the level to fall by half in the phase considered.

The values that follow come from US12290513B2, “Therapeutic methods and compositions for treating movement disorders” (Vima Therapeutics, Inc., priority 2023, dated 2025).

For data set [1] the following is noted: human, in vivo. On the procedure: Experimental Design: All of the data collected in this example were run in a double-blind, randomized, placebo controlled setting of normal healthy adults. […] Dizziness was measured by the visual analog scale (VAS), a common clinical measure of dizziness.
The conditions of data set [2]: dogs.
In data set [3] the target is T1, human muscarinic receptor M2 (Homo sapiens, UniProt P08172).
T1 construct: expressed in transfected cells
T1 sequence (P08172 whole entry): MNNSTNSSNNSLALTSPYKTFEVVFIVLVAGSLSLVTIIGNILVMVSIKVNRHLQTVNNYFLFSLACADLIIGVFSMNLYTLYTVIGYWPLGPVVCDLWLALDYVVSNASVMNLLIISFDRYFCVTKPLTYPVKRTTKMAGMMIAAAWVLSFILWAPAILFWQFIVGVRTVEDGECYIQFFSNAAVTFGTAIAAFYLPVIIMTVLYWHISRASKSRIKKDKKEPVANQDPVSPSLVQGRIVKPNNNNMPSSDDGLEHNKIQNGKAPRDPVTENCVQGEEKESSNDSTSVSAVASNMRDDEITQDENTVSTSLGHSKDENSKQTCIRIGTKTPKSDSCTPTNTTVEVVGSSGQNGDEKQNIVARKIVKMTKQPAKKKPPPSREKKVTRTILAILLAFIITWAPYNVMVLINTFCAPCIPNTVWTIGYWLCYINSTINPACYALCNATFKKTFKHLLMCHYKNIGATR
In words: Calcium flux assay (FLIPR), CHO cells expressing human M2. It is filed as cell-based. As to conditions: agonist mode. On the procedure: (§1) All cells used in the following experiments were clonal populations of Chinese Hamster Ovary (CHO) cells stably expressing the corresponding human muscarinic receptor, except for the M4 cell line, which was a population of CHO cells transiently transfected with the human M4 receptor. Muscarinic agonism and antagonism of each receptor was measured by a quantitative calcium flux assay that is used for multiple classes of G-protein-coupled receptors, or GPCRs, as described elsewhere (e.g., Arkin et al., […], PMID: 22553878). Acetylcholine and atropine were used as positive controls for receptor agonism and antagonism, respectively. The procedure was as follows: • 1. Cells were thawed and cultured in cell culture medium (DMEM/F12 containing 10% FBS, 1× penicillin-streptomycin and 600 μg/ml hygromycin B) at 37° C. in 5% (v/v) CO2. • 2. One day before the assays, cells were detached using TrypLE™ and counted using a cell-counter. Only cells with >85% viability are used for the assay. • 3. […] Plates were read for 160 sec with 1 sec intervals to obtain the data in agonist mode, then kept at 25° C. in the dark for 30 min. • 11. […] Plates were read for 160 sec with 1 sec intervals, thereby measuring the ability for test compounds to antagonize the activation of muscarinic receptors by Ach.
(Calcium flux is commonly read through the fluorescence of an indicator in the cells.)

Data set [4] is described as follows: In vivo PK of (S)-BTC in rats: plasma, brain, CSF. The note with it: male, Sprague Dawley, rat, 10 mg/kg single oral dose; for Kp: po, 10 mg/kg. How it is done: 6-8-week-old male Sprague Dawley rats were fasted overnight prior to treatment. […] Treated animals were exsanguinated prior to brain collection, and brain samples were frozen at −80° C. […] Concentrations of compounds in the plasma, brain, CSF samples were analyzed using a standard LC-MS/MS method to detect parent test compound from each of the processed tissues. The following pharmacokinetic parameters were calculated and analyzed using WinNonlin (Phoenix™, version 8.3): T1/2, Cmax, Tmax, MRT, AUCinf, AUClast, F %, ratio of brain/plasma, ratio of CSF/plasma, and ratio of CSF/brain.

Data set [5] deals with T2, human muscarinic receptor M5 (Homo sapiens, UniProt P08912).
T2 construct: expressed in transfected cells
T2 sequence (P08912 whole entry): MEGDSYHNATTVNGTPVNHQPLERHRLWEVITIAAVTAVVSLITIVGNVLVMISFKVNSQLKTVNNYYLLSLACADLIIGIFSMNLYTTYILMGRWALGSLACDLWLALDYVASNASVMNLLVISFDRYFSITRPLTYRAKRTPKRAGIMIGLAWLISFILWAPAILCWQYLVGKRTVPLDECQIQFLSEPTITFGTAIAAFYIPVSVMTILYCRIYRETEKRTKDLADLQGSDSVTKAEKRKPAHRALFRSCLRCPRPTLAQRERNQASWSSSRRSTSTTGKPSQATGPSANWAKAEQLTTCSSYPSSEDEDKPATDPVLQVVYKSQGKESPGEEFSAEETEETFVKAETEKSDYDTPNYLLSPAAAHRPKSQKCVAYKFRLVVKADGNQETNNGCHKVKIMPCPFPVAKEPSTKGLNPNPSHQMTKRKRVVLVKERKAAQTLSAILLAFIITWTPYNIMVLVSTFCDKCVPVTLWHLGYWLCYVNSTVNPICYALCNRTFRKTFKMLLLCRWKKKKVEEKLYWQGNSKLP
In words: Calcium flux assay (FLIPR), CHO cells expressing human M5. Format: cell-based. The note with it: agonist mode. How it is done:
as §1

Structures are written as SMILES. Like-named read-outs stand apart in the source and are kept apart here.

As for `O[C@@](CCN1CCCCC1)(c1ccccc1)C1CCCCC1` [(R)-THP, (R)-trihexyphenidyl], in data set [1], the “share of exposure that is R-THP” value is 85%. Also, the “share of total THP that was (R)-THP” value in data set [2] (IV 0.2 mg/kg Racemic THP) is given as around 60%. Besides, in data set [2] (oral 2 mg/kg Racemic THP, alone or co-dosed with Bethanechol), the “share of serum THP detected that was (R)-THP” value is “over 80%”.
Regarding `C[C@@H](C[N+](C)(C)C)OC(N)=O.[Cl-]` [(S)-BTC, (S)-bethanechol], the results for the EC50 in data set [3] and in data set [5] were 405 nM and 124 nM, respectively. Moreover, the Kp was found to be 0.00615 in data set [4] (CSF and plasma, read-out: AUClast Ratio (CSF/Plasma)); 0.00553 in data set [4] (CSF and plasma, read-out: Cmax Ratio (CSF/Plasma)); 0.0499 in data set [4] (brain and plasma, read-out: AUClast Ratio (Brain/Plasma)); 0.0242 in data set [4] (brain and plasma, read-out: Cmax Ratio (Brain/Plasma)). For the same molecule, the AUC(0-t) in data set [4] (CSF, mean) is 6.31 ng·h/mL; in data set [4] (plasma, mean), 1030 ng·h/mL. The Cmax in data set [4] (CSF, mean) stood at 1.74 ng/mL; in data set [4] (brain, mean), 7.6 ng/g; in data set [4] (plasma, mean), 314 ng/mL. Further, the Tmax in data set [4] (CSF, mean) is 0.5 h; in data set [4] (brain, mean), 8 h; in data set [4] (plasma, mean), 1 h. Moreover, the AUC(0-inf) in data set [4] (plasma, mean) was determined as 1080 ng·h/mL. This molecule gave a half-life in data set [4] (plasma, mean) of 109 min. In addition, the MRT inf in data set [4] (plasma, mean, read-out: MRTInf obs) was 2.91 h.
